Assays:
Format in all cases: cell-based
HCT-116 = assay: In vitro cytotoxicity assay (SRB), HCT-116; settings: HCT-116 (Human colon cancer), 72 hours of incubation
HT-29 = assay: In vitro cytotoxicity assay (SRB), HT-29; settings: HT-29 (Human colon cancer), 72 hours of incubation
MCF-7 = assay: In vitro cytotoxicity assay (SRB), MCF-7; settings: MCF7, MCF-7 (Human breast cancer), 72 hours of incubation
DMS-114 = assay: In vitro cytotoxicity assay (SRB), DMS-114; settings: Homo sapiens, DMS-114 (Small cell lung cancer), 72 hours of incubation
PC14PE6/AS2 = assay: In vitro cytotoxicity assay (SRB), PC14PE6/AS2; settings: PC14PE6/AS2 (Non-small cell lung cancer), 72 hours of incubation

SMILES: CC[C@@]1(OC(=O)[C@@H](C)O)C(=O)OCc2c1cc1n(c2=O)Cc2cc3c(CN(C)C)c(O)ccc3nc2-1 [S,R-topotecan lactate (U1), S,R-topotecan lactate]
- IC50 (HCT-116): 58 nM
- IC50 (HT-29): 56 nM
- IC50 (MCF-7): 194 nM
- IC50 (DMS-114): 53 nM
- IC50 (PC14PE6/AS2): 21 nM

SMILES: CC[C@@]1(OC(=O)[C@H](C)O)C(=O)OCc2c1cc1n(c2=O)Cc2cc3c(CN(C)C)c(O)ccc3nc2-1 [S,S-topotecan lactate (U2), S,S-topotecan lactate]
- IC50 (HCT-116): 45 nM
- IC50 (HT-29): 56 nM
- IC50 (MCF-7): 143 nM
- IC50 (DMS-114): 26 nM
- IC50 (PC14PE6/AS2): 74 nM

Reference: patent US8168648B2, “Camptothecin derivatives and uses thereof” (Taiwan Liposome Co., Ltd., priority 2009, dated 2012)
